Measured values: ChEMBL document CHEMBL1153338, “Semi-synthetic and synthetic 1,2,4-trioxaquines and 1,2,4-trioxolaquines: synthesis, preliminary SAR and comparison with acridine endoperoxide conjugates” (Bioorg Med Chem Lett, 2009)

Tests used:
Plasmodium falciparum [1] = test: Antimalarial activity against chloroquine-sensitive Plasmodium falciparum 3D7 infected type A+ human erythrocytes after 24 hrs by [G-3H]hypoxanthine uptake; format: functional, organism-based; conditions: 3D7, 24 h
Plasmodium falciparum [2] = test: Antimalarial activity against chloroquine-resistant Plasmodium falciparum K1 infected type A+ human erythrocytes after 24 hrs by [G-3H]hypoxanthine uptake; format: functional, organism-based; conditions: K1, 24 h

Row | SMILES | IC50 (Plasmodium falciparum [1]) [nM] | IC50 (Plasmodium falciparum [2]) [nM]
1 | COc1ccc2nc3cc(Cl)ccc3c(NCCCNCc3ccc(CO[C@H]4O[C@@H]5O[C@@]6(C)CC[C@H]7[C@H](C)CC[C@@H]([C@H]4C)[C@@]57OO6)cc3)c2c1 | 16.3 | 20.2
2 | C[C@H]1[C@@H](CC(=O)NCCCNc2ccnc3cc(Cl)ccc23)O[C@@H]2O[C@@]3(C)CC[C@H]4[C@H](C)CC[C@@H]1[C@@]24OO3 | 9.34 | 8.22
3 | Clc1ccc2c(N3CCN(C4CCC5(CC4)OOC4(O5)C5CC6CC(C5)CC4C6)CC3)ccnc2c1 (stereo not given) | 12.6 | 26.2
4 | C[C@H]1[C@@H](CCNCCCNc2ccnc3cc(Cl)ccc23)O[C@@H]2O[C@@]3(C)CC[C@H]4[C@H](C)CC[C@@H]1[C@@]24OO3 | 11.5 | 12.6
5 | COc1ccc2nc3cc(Cl)ccc3c(NCCNC3CCC4(CC3)OOC3(O4)C4CC5CC(C4)CC3C5)c2c1 (stereo not given) | 9.67 | 7.2
6 | COc1ccc2nc3cc(Cl)ccc3c(NCCCNC3CCC4(CC3)OOC3(O4)C4CC5CC(C4)CC3C5)c2c1 (stereo not given) | 12.5 | 11.1
7 | COc1ccc2nc3cc(Cl)ccc3c(N3CCN(C4CCC5(CC4)OOC4(O5)C5CC6CC(C5)CC4C6)CC3)c2c1 (stereo not given) | 12.3 | 6.76
8 | COc1ccc2nc3cc(Cl)ccc3c(NCCNCC[C@H]3O[C@@H]4O[C@@]5(C)CC[C@H]6[C@H](C)CC[C@@H]([C@H]3C)[C@@]46OO5)c2c1 | 12.5 | 14.3
9 | C[C@H]1[C@@H](CCNCCNc2ccnc3cc(Cl)ccc23)O[C@@H]2O[C@@]3(C)CC[C@H]4[C@H](C)CC[C@@H]1[C@@]24OO3 | 5.4 | 8.7
10 | COc1ccc2nc3cc(Cl)ccc3c(NCCNCc3ccc(CO[C@H]4O[C@@H]5O[C@@]6(C)CC[C@H]7[C@H](C)CC[C@@H]([C@H]4C)[C@@]57OO6)cc3)c2c1 | 12.3 | 19.3
11 | O=C1CCC2(CC1)OOC1(O2)C2CC3CC(C2)CC1C3 (stereo not given) | 3.1 | 3.02
12 | C[C@H]1[C@@H](CCNCCCCCNc2ccnc3cc(Cl)ccc23)O[C@@H]2O[C@@]3(C)CC[C@H]4[C@H](C)CC[C@@H]1[C@@]24OO3 | 24.2 | 16.2
13 | C[C@H]1[C@@H](CCNCCCCNc2ccnc3cc(Cl)ccc23)O[C@@H]2O[C@@]3(C)CC[C@H]4[C@H](C)CC[C@@H]1[C@@]24OO3 | 12.6 | 13.2
14 | Clc1ccc2c(NCCCNC3CCC4(CC3)OOC3(O4)C4CC5CC(C4)CC3C5)ccnc2c1 (stereo not given) | 12.3 | 8.32
15 | Clc1ccc2c(NCCNC3CCC4(CC3)OOC3(O4)C4CC5CC(C4)CC3C5)ccnc2c1 (stereo not given) | 6.56 | 3.6
